Results on 13 compounds are retold here after PubChem BioAssay (NCI).

SMILES strings stand for the structures.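 Following 48 hours of exposure in 96-well plates, responses at five concentrations were used to interpolate endpoints linearly. TGI marks complete inhibition of growth.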

Among the test systems are SNB-75 CNS; SK-MEL-28 melanoma; UACC-257 melanoma; DU-145 prostate; NCI-H23 lung; SK-MEL-5 melanoma; SF-268 CNS; HOP-92 NSCLC; TK-10 renal; CAKI-1 renal.
Holding throughout (assay): NCI tumour cell line growth inhibition, 48 h

Turning to `c1csc(-c2csc(-c3cccs3)c2)c1`, the TGI in the test with SNB-75 CNS is over 100 µM; in the test with SK-MEL-28 melanoma, over 100 µM; in the test with UACC-257 melanoma, over 100 µM; in the test with DU-145 prostate, over 100 µM; with NCI-H23 lung, 63.1 µM; in the test with SK-MEL-5 melanoma it was 38.8 µM. Further, the TGI with SF-268 CNS was over 100 µM; in the test with HOP-92 NSCLC it was 69.8 µM; in the test on TK-10 renal, over 100 µM; in the test on CAKI-1 renal it was over 100 µM.
As to `Cc1cc(C(C)(C)C)c(OCCCN2CCOCC2)c(C(C)(C)C)c1`, the TGI was determined as 32.6 µM in the test on SNB-75 CNS; 30.5 µM in the test on SK-MEL-28 melanoma; 32 µM in the test on UACC-257 melanoma; 34.1 µM in the test on DU-145 prostate; 32 µM in the test on NCI-H23 lung; 30 µM in the test with SK-MEL-5 melanoma. Besides, the TGI in the test with SF-268 CNS is 33.5 µM; in the test on HOP-92 NSCLC, 35 µM; in the test with TK-10 renal, 36.2 µM; in the test on CAKI-1 renal, 34.5 µM.
For `NC(=S)N1N=C(c2ccc3c(c2)CCC3)CC1c1ccccc1` (stereo unspecified), the TGI is 56.1 µM with SNB-75 CNS; over 100 µM in the test on SK-MEL-28 melanoma; 86.9 µM in the test with UACC-257 melanoma; 80.8 µM in the test with DU-145 prostate; 95.5 µM with NCI-H23 lung; 31.3 µM with SK-MEL-5 melanoma. Besides, the TGI with SF-268 CNS was over 100 µM; in the test with HOP-92 NSCLC, 85.7 µM; in the test with TK-10 renal it was 87.1 µM; in the test on CAKI-1 renal it was over 100 µM.
As for `Cc1ccc(N=Nc2cc(=O)[nH]c(=O)[nH]2)cc1C`, the TGI was determined as 15.3 µM in the test with SNB-75 CNS; 34.3 µM with SK-MEL-28 melanoma; 28.7 µM in the test with UACC-257 melanoma; 27.9 µM in the test on DU-145 prostate; 30.4 µM in the test on SK-MEL-5 melanoma; 42.6 µM in the test on SF-268 CNS. In addition, the TGI in the test with HOP-92 NSCLC turned out to be 33.4 µM; in the test with TK-10 renal it was 34.3 µM.
Regarding `CC1=C(C(=O)OC(C)C)C(c2cccc([N+](=O)[O-])c2)C(C(=O)OC(CO[N+](=O)[O-])CO[N+](=O)[O-])=C(C)N1` (stereo unspecified), the TGI with SNB-75 CNS is 43.3 µM; with SK-MEL-28 melanoma it was 33.7 µM; in the test on UACC-257 melanoma, 13.3 µM; in the test on DU-145 prostate, over 100 µM; in the test with NCI-H23 lung it was over 100 µM; in the test on SK-MEL-5 melanoma, 4.13 µM. Moreover, the TGI in the test on SF-268 CNS was 22.7 µM; in the test with HOP-92 NSCLC, 7.38 µM; in the test with TK-10 renal, over 100 µM; in the test on CAKI-1 renal it was over 100 µM.
Consider `CN(NC(=O)/C(=C/C=C/c1ccccc1)NC(=O)c1ccccc1)C1=C(Cl)C(=O)[N+](c2ccccc2)=CC1`, for which the TGI is 69.6 µM with SNB-75 CNS; 37.1 µM with SK-MEL-28 melanoma; over 100 µM in the test on UACC-257 melanoma; over 100 µM in the test with DU-145 prostate; over 100 µM with NCI-H23 lung; 27.4 µM with SK-MEL-5 melanoma. Moreover, the TGI was 70.4 µM in the test with SF-268 CNS, 80.1 µM with HOP-92 NSCLC, over 100 µM with TK-10 renal and over 100 µM with CAKI-1 renal.
`CCCCC[C@@H]1OC(=O)[C@@]2(CC3c4ccccc4C2c2ccccc23)[C@H]1C(=O)OC`: the TGI is 86.4 µM in the test on UACC-257 melanoma; over 100 µM in the test with DU-145 prostate; over 100 µM in the test with NCI-H23 lung; 39.2 µM with SK-MEL-5 melanoma; over 100 µM with SF-268 CNS; over 100 µM with HOP-92 NSCLC. Further, the TGI with TK-10 renal and in the test with CAKI-1 renal was over 100 µM in each case.
For the compound `O=C(NC(Cc1c[nH]c2ccccc12)C(=O)O)/C(=C/c1ccccc1)NC(=O)c1ccccc1` (stereo unspecified), the TGI in the test on SNB-75 CNS, in the test with SK-MEL-28 melanoma, with UACC-257 melanoma, in the test with DU-145 prostate, in the test on NCI-H23 lung and in the test with SK-MEL-5 melanoma was over 100 µM throughout. The TGI in the test on SF-268 CNS was over 100 µM; in the test with HOP-92 NSCLC it was 94.8 µM; with TK-10 renal, over 100 µM; in the test with CAKI-1 renal, over 100 µM.
For the compound `CCOc1cc(C=Nc2ccc(Oc3ccc(Cl)cc3)c(Cl)c2)ccc1O`, the TGI was 45.7 µM with SNB-75 CNS; 63.1 µM with SK-MEL-28 melanoma; 80.8 µM with UACC-257 melanoma; over 100 µM with DU-145 prostate; 45.6 µM with NCI-H23 lung; 52.9 µM in the test on SK-MEL-5 melanoma. For the same compound, the TGI in the test on SF-268 CNS is 32 µM; in the test with HOP-92 NSCLC, 39.6 µM; in the test with TK-10 renal, over 100 µM; with CAKI-1 renal, 59.4 µM.
As to `Oc1cc(Br)cc2cc(Br)cnc12`, the TGI with SNB-75 CNS was over 100 µM; with SK-MEL-28 melanoma, over 100 µM; in the test on UACC-257 melanoma, over 100 µM; with DU-145 prostate, 60.8 µM; with NCI-H23 lung, 46.1 µM; in the test with SK-MEL-5 melanoma, 31.7 µM. Also, the TGI in the test with SF-268 CNS is over 100 µM; with HOP-92 NSCLC it was 83.8 µM; in the test on TK-10 renal, over 100 µM; in the test with CAKI-1 renal it was 42.6 µM.
Turning to `Fc1ccccc1C1SCC2=Nc3ccccc3CN21` (stereo unspecified), the TGI with SNB-75 CNS, in the test with SK-MEL-28 melanoma, with UACC-257 melanoma, in the test with DU-145 prostate, in the test on NCI-H23 lung and in the test with SK-MEL-5 melanoma was over 100 µM in each case. The TGI in the test with SF-268 CNS, with HOP-92 NSCLC, in the test on TK-10 renal and with CAKI-1 renal was over 100 µM throughout.
As for `C[N+](C)(C)c1nc(N)nc2c1ncn2C1OC(CO)C(O)C1O` (stereo unspecified), the TGI with SNB-75 CNS, with SK-MEL-28 melanoma, in the test on UACC-257 melanoma, with DU-145 prostate, in the test with NCI-H23 lung and in the test with SK-MEL-5 melanoma was over 100 µM each time. Besides, the TGI with SF-268 CNS, in the test with HOP-92 NSCLC, in the test with TK-10 renal and in the test with CAKI-1 renal was over 100 µM throughout.
For the compound `Nc1ncc(Cc2nn3c(COc4ccc(Cl)cc4)nnc3s2)s1`, the TGI in the test with SNB-75 CNS, with SK-MEL-28 melanoma, with UACC-257 melanoma, with DU-145 prostate, with NCI-H23 lung and with SK-MEL-5 melanoma was over 100 µM each time. For the same compound, the TGI with SF-268 CNS, in the test on HOP-92 NSCLC, in the test on TK-10 renal and with CAKI-1 renal was over 100 µM each time.
